Measurements published in patent publication US20080293795A1, “COMBINATION THERAPY WITH PARP INHIBITORS” (ABBOTT LABORATORIES, priority 2006, published 2008).

Biological target: T1, Recombinant Human Poly(ADP-Ribose) Polymerase (PARP) (Homo sapiens, UniProt P09874)
T1 construct: purchased Trevigen, Gaithersburg, Md; host or cells: E. coli
Experiment: PARP1 inhibition assay ([3H]-NAD+, biotinylated histone H1, FlashPlate/SPA)
Assay type: biochemical
Details: from inhibition curves at various substrate concentrations
Method: Nicotinamide[2,5′,8-3H]adenine dinucleotide and strepavidin SPA beads were purchased from Amersham Biosiences (UK) Recombinant Human Poly(ADP-Ribose) Polymerase (PARP) purified from E. coli and 6-Biotin-17-NAD^+, were purchase from Trevigen, Gaithersburg, Md. NAD^+, Histone, aminobenzamide, 3-amino benzamide and Calf Thymus DNA (dcDNA) were purchased from Sigma, St. Louis, Mo. […] Biotinylated histone H1 was prepared by treating the protein with Sulfo-NHS-LC-Biotin from Pierce Rockford, Ill. […] Streptavidin coated (FlashPlate Plus) microplates were purchased from Perkin Elmer, Boston, Mass.
PARP1 assay was conducted in PARP assay buffer containing 50 mM Tris pH 8.0, 1 mM DTT, 4 mM MgCl2. […] 170 μl of the stopped reaction mixtures were transferred to streptavidin Flash Plates, incubated for 1 hr, and counted using a TopCount microplate scintillation counter.

T1 sequence (P09874 whole entry): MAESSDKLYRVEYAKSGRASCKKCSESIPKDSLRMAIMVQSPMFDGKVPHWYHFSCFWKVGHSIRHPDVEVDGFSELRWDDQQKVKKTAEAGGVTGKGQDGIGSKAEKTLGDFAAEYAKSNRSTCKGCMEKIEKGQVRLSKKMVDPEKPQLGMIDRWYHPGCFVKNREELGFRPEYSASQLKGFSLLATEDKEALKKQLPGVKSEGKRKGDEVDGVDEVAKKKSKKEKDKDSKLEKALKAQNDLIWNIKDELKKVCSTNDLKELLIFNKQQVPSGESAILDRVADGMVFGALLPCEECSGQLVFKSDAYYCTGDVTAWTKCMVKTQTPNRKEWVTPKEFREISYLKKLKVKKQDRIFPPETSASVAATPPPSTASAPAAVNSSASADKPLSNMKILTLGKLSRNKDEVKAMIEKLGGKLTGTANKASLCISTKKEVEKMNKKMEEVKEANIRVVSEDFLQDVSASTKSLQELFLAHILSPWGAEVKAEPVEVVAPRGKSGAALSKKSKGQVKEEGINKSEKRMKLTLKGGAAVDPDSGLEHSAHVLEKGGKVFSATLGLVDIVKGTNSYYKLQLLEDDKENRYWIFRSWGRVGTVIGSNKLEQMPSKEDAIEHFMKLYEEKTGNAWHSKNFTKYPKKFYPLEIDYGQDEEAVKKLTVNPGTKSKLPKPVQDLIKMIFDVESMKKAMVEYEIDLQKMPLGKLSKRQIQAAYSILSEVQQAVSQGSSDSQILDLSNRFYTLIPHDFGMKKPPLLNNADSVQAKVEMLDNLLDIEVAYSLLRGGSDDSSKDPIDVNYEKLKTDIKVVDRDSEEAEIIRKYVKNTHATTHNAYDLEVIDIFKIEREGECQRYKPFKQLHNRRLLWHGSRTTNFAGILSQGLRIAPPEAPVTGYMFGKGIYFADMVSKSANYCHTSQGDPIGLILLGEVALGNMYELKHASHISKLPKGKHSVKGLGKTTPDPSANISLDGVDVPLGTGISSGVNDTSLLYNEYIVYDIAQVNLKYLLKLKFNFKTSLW

Compound	Ki
CCCN1CCC(C)(c2nc3c(C(N)=O)cccc3[nH]2)C1 (stereo not shown) [2-(3-methyl-1-propylpyrrolidin-3-yl)-1H-benzimidazole-4-carboxamide]	4.2 nM
CN(C)S(=O)(=O)N1CCC(C)(c2nc3c(C(N)=O)cccc3[nH]2)CC1 [2-{1-[(dimethylamino)sulfonyl]-4-methylpiperidin-4-yl}-1H-benzimidazole-4-carboxamide]	8.8 nM
CC1(c2nc3c(C(N)=O)cccc3[nH]2)CN(C2CCC2)C1 [2-(1-cyclobutyl-3-methylazetidin-3-yl)-1H-benzimidazole-4-carboxamide]	6.1 nM
CC1(c2nc3c(C(N)=O)cccc3[nH]2)CCN1C1CCC1 (stereo not shown) [2-(1-cyclobutyl-2-methylazetidin-2-yl)-1H-benzimidazole-4-carboxamide]	33.3 nM
CC1(c2nc3c(C(N)=O)cccc3[nH]2)CCN1C1CCCCC1 (stereo not shown) [2-(1-cyclohexyl-2-methylazetidin-2-yl)-1H-benzimidazole-4-carboxamide]	27.7 nM
CC1(c2nc3c(C(N)=O)cccc3[nH]2)CCCN(C2CCCCC2)CC1 (stereo not shown) [2-(1-cyclohexyl-4-methylazepan-4-yl)-1H-benzimidazole-4-carboxamide]	11.9 nM
CC1(c2nc3c(C(N)=O)cccc3[nH]2)CN(CC2CC2)C1 [2-[1-(cyclopropylmethyl)-3-methylazetidin-3-yl]-1H-benzimidazole-4-carboxamide]	8 nM
CC1(c2nc3c(C(N)=O)cccc3[nH]2)CN(C2CCCCC2)C1 [2-(1-cyclohexyl-3-methylazetidin-3-yl)-1H-benzimidazole-4-carboxamide]	5.6 nM
NC(=O)c1cccc2[nH]c([C@@H]3CCCN3C3CCC3)nc12 [2-[(2S)-1-cyclobutylpyrrolidin-2-yl]-1H-benzimidazole-4-carboxamide]	338 nM
CC1(c2nc3c(C(N)=O)cccc3[nH]2)CCN(C2CCCCC2)C1 (stereo not shown) [2-(1-cyclohexyl-3-methylpyrrolidin-3-yl)-1H-benzimidazole-4-carboxamide]	5.8 nM
CCCN1CCCC1(C)c1nc2c(C(N)=O)cccc2[nH]1 (stereo not shown) [2-(2-methyl-1-propylpyrrolidin-2-yl)-1H-benzimidazole-4-carboxamide]	18.7 nM
CC1(c2nc3c(C(N)=O)cccc3[nH]2)CCN(C2CCC2)C1 (stereo not shown) [2-(1-cyclobutyl-3-methylpyrrolidin-3-yl)-1H-benzimidazole-4-carboxamide]	4 nM
CC1(c2nc3c(C(N)=O)cccc3[nH]2)CN(C2CCOCC2)C1 [2-(3-methyl-1-tetrahydro-2H-pyran-4-ylazetidin-3-yl)-1H-benzimidazole-4-carboxamide]	12.7 nM
CCCN1CC(C)(c2nc3c(C(N)=O)cccc3[nH]2)C1 [2-(3-methyl-1-propylazetidin-3-yl)-1H-benzimidazole-4-carboxamide]	6.9 nM
CC1(c2nc3c(C(N)=O)cccc3[nH]2)CCN(CC2CC2)C1 (stereo not shown) [2-[1-(cyclopropylmethyl)-3-methylpyrrolidin-3-yl]-1H-benzimidazole-4-carboxamide]	5 nM
CC1(c2nc3c(C(N)=O)cccc3[nH]2)CN(C2CCCC2)C1 [2-(1-cyclopentyl-3-methylazetidin-3-yl)-1H-benzimidazole-4-carboxamide]	4 nM
CC(C)CN1CC(C)(c2nc3c(C(N)=O)cccc3[nH]2)C1 [2-(1-isobutyl-3-methylazetidin-3-yl)-1H-benzimidazole-4-carboxamide]	5.6 nM
CC1(c2nc3c(C(N)=O)cccc3[nH]2)CCN(C2CCC2)CC1 [2-(1-cyclobutyl-4-methylpiperidin-4-yl)-1H-benzimidazole-4-carboxamide]	9.2 nM
CN(C)S(=O)(=O)N1CC(C)(c2nc3c(C(N)=O)cccc3[nH]2)C1 [2-{1-[(dimethylamino)sulfonyl]-3-methylazetidin-3-yl}-1H-benzimidazole-4-carboxamide]	7 nM
CCCN1CCC(C)(c2nc3c(C(N)=O)cccc3[nH]2)CC1 [2-(4-methyl-1-propylpiperidin-4-yl)-1H-benzimidazole-4-carboxamide]	13.5 nM
CC1(c2nc3c(C(N)=O)cccc3[nH]2)CCN(C2CCOCC2)C1 (stereo not shown) [2-(3-methyl-1-tetrahydro-2H-pyran-4-ylpyrrolidin-3-yl)-1H-benzimidazole-4-carboxamide]	7.2 nM
CC1(c2nc3c(C(N)=O)cccc3[nH]2)CCN1C1CCCC1 (stereo not shown) [2-(1-cyclopentyl-2-methylazetidin-2-yl)-1H-benzimidazole-4-carboxamide]	31.1 nM
CC(C)N1CCC[C@@H]1c1nc2cccc(C(N)=O)c2[nH]1 [2-[(2R)-1-isopropylpyrrolidin-2-yl]-1H-benzimidazole-4-carboxamide]	12.8 nM
CC1(c2nc3c(C(N)=O)cccc3[nH]2)CCN(C2CCCC2)C1 (stereo not shown) [2-(1-cyclopentyl-3-methylpyrrolidin-3-yl)-1H-benzimidazole-4-carboxamide]	3.4 nM
CCN1CCCC1(C)c1nc2c(C(N)=O)cccc2[nH]1 (stereo not shown) [2-(1-ethyl-2-methylpyrrolidin-2-yl)-1H-benzimidazole-4-carboxamide]	6 nM
CC(C)CN1CCC(C)(c2nc3c(C(N)=O)cccc3[nH]2)C1 (stereo not shown) [2-(1-isobutyl-3-methylpyrrolidin-3-yl)-1H-benzimidazole-4-carboxamide]	3.8 nM

Second part, the compound after the results:

Ki	Compound
6 nM	CC(C)N1CCC(c2nc3c(C(N)=O)cccc3[nH]2)CC1 [2-(1-isopropylpiperidin-4-yl)-1H-benzimidazole-4-carboxamide]
7 nM	NC(=O)c1cccc2[nH]c(C3CCN(C4CCCCC4)C3)nc12 (stereo not shown) [2-(1-cyclohexylpyrrolidin-3-yl)-1H-benzimidazole-4-carboxamide]
45.6 nM	NC(=O)c1cccc2[nH]c(C3CN(C4CCOCC4)C3)nc12 [2-(1-tetrahydro-2H-pyran-4-ylazetidin-3-yl)-1H-benzimidazole-4-carboxamide]
7.4 nM	CC(C)CN1CCC(c2nc3c(C(N)=O)cccc3[nH]2)C1 (stereo not shown) [2-(1-isobutylpyrrolidin-3-yl)-1H-benzimidazole-4-carboxamide]
5.2 nM	NC(=O)c1cccc2[nH]c(C3CCN(CC4CC4)C3)nc12 (stereo not shown) [2-[1-(cyclopropylmethyl)pyrrolidin-3-yl]-1H-benzimidazole-4-carboxamide]
8.2 nM	NC(=O)c1cccc2[nH]c(C3CCN(C4CCOCC4)C3)nc12 (stereo not shown) [2-(1-tetrahydro-2H-pyran-4-ylpyrrolidin-3-yl)-1H-benzimidazole-4-carboxamide]
129 nM	CCCN1CCC[C@H]1c1nc2c(C(N)=O)cccc2[nH]1 [2-[(2S)-1-propylpyrrolidin-2-yl]-1H-benzimidazole-4-carboxamide]
146 nM	CCCN1CCC[C@@H]1c1nc2c(C(N)=O)cccc2[nH]1 [2-[(2R)-1-propylpyrrolidin-2-yl]-1H-benzimidazole-4-carboxamide]
6.8 nM	NC(=O)c1cccc2[nH]c(C3CCN(C4CCC4)C3)nc12 (stereo not shown) [2-(1-cyclobutylpyrrolidin-3-yl)-1H-benzimidazole-4-carboxamide]
6.3 nM	NC(=O)c1cccc2[nH]c(C3CCN(C4CCC4)CC3)nc12 [2-(1-cyclobutylpiperidin-4-yl)-1H-benzimidazole-4-carboxamide]
142 nM	NC(=O)c1cccc2[nH]c([C@H]3CCCN3C3CCC3)nc12 [2-[(2R)-1-cyclobutylpyrrolidin-2-yl]-1H-benzimidazole-4-carboxamide]
14.2 nM	NC(=O)c1cccc2[nH]c(C3CCN(Cc4ccncc4)C3)nc12 (stereo not shown) [2-[1-(pyridin-4-ylmethyl)pyrrolidin-3-yl]-1H-benzimidazole-4-carboxamide]
14.4 nM	CC(C)CN1CC(c2nc3c(C(N)=O)cccc3[nH]2)C1 [2-(1-isobutylazetidin-3-yl)-1H-benzimidazole-4-carboxamide]
118 nM	CC(C)N1CCC1c1nc2c(C(N)=O)cccc2[nH]1 (stereo not shown) [2-(1-isopropylazetidin-2-yl)-1H-benzimidazole-4-carboxamide]
8.1 nM	CCCN1CCC(c2nc3c(C(N)=O)cccc3[nH]2)C1 (stereo not shown) [2-(1-propylpyrrolidin-3-yl)-1H-benzimidazole-4-carboxamide]
16.4 nM	NC(=O)c1cccc2[nH]c(C3CN(C4CCC4)C3)nc12 [2-(1-cyclobutylazetidin-3-yl)-1H-benzimidazole-4-carboxamide]
13.2 nM	CC(CCc1ccccc1)N1CCC(c2nc3c(C(N)=O)cccc3[nH]2)C1 (stereo not shown) [2-[1-(1-methyl-3-phenylpropyl)pyrrolidin-3-yl]-1H-benzimidazole-4-carboxamide]
16 nM	NC(=O)c1cccc2[nH]c(C3CN(C4CCCCC4)C3)nc12 [2-(1-cyclohexylazetidin-3-yl)-1H-benzimidazole-4-carboxamide]
8.9 nM	CC1(c2nc3c(C(N)=O)cccc3[nH]2)CCN(Cc2ccncc2)C1 (stereo not shown) [2-[3-methyl-1-(pyridin-4-ylmethyl)pyrrolidin-3-yl]-1H-benzimidazole-4-carboxamide]
14.1 nM	CCCN1CC(c2nc3c(C(N)=O)cccc3[nH]2)C1 [2-(1-propylazetidin-3-yl)-1H-benzimidazole-4-carboxamide]
16 nM	CN(C)S(=O)(=O)N1CC(c2nc3c(C(N)=O)cccc3[nH]2)C1 [2-{1-[(dimethylamino)sulfonyl]azetidin-3-yl}-1H-benzimidazole-4-carboxamide]
80 nM	NC(=O)c1cccc2[nH]c(C3CCN3C3CCC3)nc12 (stereo not shown) [2-(1-cyclobutylazetidin-2-yl)-1H-benzimidazole-4-carboxamide]
31.1 nM	CN(C)S(=O)(=O)N1CCC(c2nc3c(C(N)=O)cccc3[nH]2)CC1 [2-{1-[(dimethylamino)sulfonyl]piperidin-4-yl}-1H-benzimidazole-4-carboxamide]
19.3 nM	CC(C)N1CCC[C@H]1c1nc2c(C(N)=O)cccc2[nH]1 [2-[(2S)-1-isopropylpyrrolidin-2-yl]-1H-benzimidazole-4-carboxamide]
49 nM	CCN1CCC[C@H]1c1nc2c(C(N)=O)cccc2[nH]1 [2-[(2S)-1-ethylpyrrolidin-2-yl]-1H-benzimidazole-4-carboxamide]
19 nM	NC(=O)c1cccc2[nH]c(C3CN(CC4CC4)C3)nc12 [2-[1-(cyclopropylmethyl)azetidin-3-yl]-1H-benzimidazole-4-carboxamide]
